Laboratory results from patent US12077503B2, “Substituted cyclic amides and their use as herbicides” (FMC CORPORATION, priority 2015, dated 2024).

Columns and labels:
Format in all cases: in vivo
[1] = test system: barnyardgrass (Echinochloa crus-galli); test: Test G Pre-Emergence Protocol; conditions: Echinochloa crus-galli, pre-emergence, 312 h, evaluated after 13 days; for pest or weed control at 15.625 g/ha: 15.625 g ai/ha, read-out: Barnyard grass damage rating (100=total damage to plant; 0=no damage to plant); for pest or weed control at 62.5 g/ha: 62.5 g ai/ha, 100=total damage to plant, 0=no damage to plant, read-out: plant damage rating, Barnyardgrass; for pest or weed control at 250 g/ha: 250 g ai/ha, read-out: Barnyardgrass damage rating (100=total damage to plant; 0=no damage to plant)
Summary of the method: (§1)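 Seeds were sown in standard soil and kept one day in a glasshouse (24/16° C day/night, 14 h light, 65% humidity), then sprayed with compound in acetone/water (50:50) containing 0.5% Tween 20 at 15.625, 62.5 or 250 g/ha. Damage was scored after 13 days (0 = none, 100 = total).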

corn (Zea mays) [2] = test: Test G Pre-Emergence Protocol; conditions: Zea mays, pre-emergence, 312 h, evaluated after 13 days; for plant injury at 15.625 g/ha: 15.625 g ai/ha; for plant injury at 15.625 g/ha / plant injury at 250 g/ha: read-out: Corn damage rating (100=total damage to plant; 0=no damage to plant); for plant injury at 62.5 g/ha: 62.5 g ai/ha, 100=total damage to plant, 0=no damage to plant, read-out: plant damage rating, Corn; for plant injury at 250 g/ha: 250 g ai/ha
Summary of the method: as §1

[3] = test system: giant foxtail (Setaria faberi); test: Test G Pre-Emergence Protocol; conditions: Setaria faberi, pre-emergence, 312 h, evaluated after 13 days; for pest or weed control at 15.625 g/ha: 15.625 g ai/ha; for pest or weed control at 15.625 g/ha / pest or weed control at 250 g/ha: read-out: Foxtail, Giant damage rating (100=total damage to plant; 0=no damage to plant); for pest or weed control at 62.5 g/ha: 62.5 g ai/ha, 100=total damage to plant, 0=no damage to plant, read-out: plant damage rating, Foxtail, Giant; for pest or weed control at 250 g/ha: 250 g ai/ha
Summary of the method: as §1

[4] = test system: ivy-leaved morning glory (Ipomoea hederacea); test: Test G Pre-Emergence Protocol; conditions: Ipomoea, pre-emergence, 312 h, evaluated after 13 days; for pest or weed control at 15.625 g/ha: 15.625 g ai/ha, read-out: Morning-glory, Ivy-leaved damage rating (100=total damage to plant; 0=no damage to plant); for pest or weed control at 62.5 g/ha: 62.5 g ai/ha, 100=total damage to plant, 0=no damage to plant, read-out: plant damage rating, Morningglory, Ivy-leaved; for pest or weed control at 250 g/ha: 250 g ai/ha, read-out: Morningglory, Ivy-leaved damage rating (100=total damage to plant; 0=no damage to plant)
Summary of the method: as §1

[5] = test system: redroot pigweed (Amaranthus retroflexus); test: Test G Pre-Emergence Protocol; conditions: Amaranthus retroflexus, pre-emergence, 312 h, evaluated after 13 days; for pest or weed control at 15.625 g/ha: 15.625 g ai/ha; for pest or weed control at 15.625 g/ha / pest or weed control at 250 g/ha: read-out: Pigweed, Redroot damage rating (100=total damage to plant; 0=no damage to plant); for pest or weed control at 62.5 g/ha: 62.5 g ai/ha, 100=total damage to plant, 0=no damage to plant, read-out: plant damage rating, Pigweed, Redroot; for pest or weed control at 250 g/ha: 250 g ai/ha
Summary of the method: as §1

[6] = test system: velvetleaf (Abutilon theophrasti); test: Test G Pre-Emergence Protocol; conditions: Abutilon theophrasti, pre-emergence, 312 h, evaluated after 13 days; for pest or weed control at 15.625 g/ha: 15.625 g ai/ha; for pest or weed control at 15.625 g/ha / pest or weed control at 250 g/ha: read-out: Velvetleaf damage rating (100=total damage to plant; 0=no damage to plant); for pest or weed control at 62.5 g/ha: 62.5 g ai/ha, 100=total damage to plant, 0=no damage to plant, read-out: plant damage rating, Velvetleaf; for pest or weed control at 250 g/ha: 250 g ai/ha
Summary of the method: as §1

[7] = test system: barnyardgrass (Echinochloa crus-galli); test: Test G Post-Emergence Protocol; conditions: Echinochloa crus-galli, post-emergence, 312 h; for pest or weed control at 15.625 g/ha: 15.625 g ai/ha, evaluated after 13 days (100=total damage to plant; 0=no damage to plant), read-out: Barnyardgrass damage rating; for pest or weed control at 62.5 g/ha: 62.5 g ai/ha, read-out: Barnyardgrass damage rating (100=total damage to plant; 0=no damage to plant); for pest or weed control at 62.5 g/ha / pest or weed control at 250 g/ha: evaluated after 13 days; for pest or weed control at 250 g/ha: 250 g ai/ha, read-out: damage to plant, Barnyardgrass (100=total damage to plant; 0=no damage to plant)
Summary of the method: (§2)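 Post-emergence herbicidal damage, scored visually 0–100 at 13 days. Application at 15.625, 62.5 or 250 g/ha onto 8-day-old plants grown under glasshouse control.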

corn (Zea mays) [8] = test: Test G Post-Emergence Protocol; conditions: Zea mays, post-emergence, 312 h; for plant injury at 15.625 g/ha: 15.625 g ai/ha, evaluated after 13 days (100=total damage to plant; 0=no damage to plant), read-out: Corn damage rating; for plant injury at 62.5 g/ha: 62.5 g ai/ha, read-out: Corn damage rating (100=total damage to plant; 0=no damage to plant); for plant injury at 62.5 g/ha / plant injury at 250 g/ha: evaluated after 13 days; for plant injury at 250 g/ha: 250 g ai/ha, read-out: damage to plant, Corn (100=total damage to plant; 0=no damage to plant)
Summary of the method: as §2

[9] = test system: giant foxtail (Setaria faberi); test: Test G Post-Emergence Protocol; conditions: Setaria faberi, post-emergence, 312 h; for pest or weed control at 15.625 g/ha: 15.625 g ai/ha, evaluated after 13 days (100=total damage to plant; 0=no damage to plant), read-out: Foxtail, Giant damage rating; for pest or weed control at 62.5 g/ha: 62.5 g ai/ha, read-out: Foxtail, Giant damage rating (100=total damage to plant; 0=no damage to plant); for pest or weed control at 62.5 g/ha / pest or weed control at 250 g/ha: evaluated after 13 days; for pest or weed control at 250 g/ha: 250 g ai/ha, read-out: damage to plant, Foxtail, Giant (100=total damage to plant; 0=no damage to plant)
Summary of the method: as §2

[10] = test system: ivy-leaved morning glory (Ipomoea hederacea); test: Test G Post-Emergence Protocol; conditions: Ipomoea, post-emergence, 312 h; for pest or weed control at 15.625 g/ha: 15.625 g ai/ha, evaluated after 13 days (100=total damage to plant; 0=no damage to plant), read-out: Morningglory, Ivy-leaved damage rating; for pest or weed control at 62.5 g/ha: 62.5 g ai/ha, read-out: Morningglory, Ivy-leaved damage rating (100=total damage to plant; 0=no damage to plant); for pest or weed control at 62.5 g/ha / pest or weed control at 250 g/ha: evaluated after 13 days; for pest or weed control at 250 g/ha: 250 g ai/ha, read-out: damage to plant, Morningglory, Ivy-leaved (100=total damage to plant; 0=no damage to plant)
Summary of the method: as §2

[11] = test system: redroot pigweed (Amaranthus retroflexus); test: Test G Post-Emergence Protocol; conditions: Amaranthus retroflexus, post-emergence, 312 h; for pest or weed control at 15.625 g/ha: 15.625 g ai/ha, evaluated after 13 days (100=total damage to plant; 0=no damage to plant), read-out: Pigweed, Redroot damage rating; for pest or weed control at 62.5 g/ha: 62.5 g ai/ha, read-out: Pigweed, Redroot damage rating (100=total damage to plant; 0=no damage to plant); for pest or weed control at 62.5 g/ha / pest or weed control at 250 g/ha: evaluated after 13 days; for pest or weed control at 250 g/ha: 250 g ai/ha, read-out: damage to plant, Pigweed, Redroot (100=total damage to plant; 0=no damage to plant)
Summary of the method: as §2

[12] = test system: velvetleaf (Abutilon theophrasti); test: Test G Post-Emergence Protocol; conditions: Abutilon theophrasti, post-emergence, 312 h; for pest or weed control at 15.625 g/ha: 15.625 g ai/ha, evaluated after 13 days (100=total damage to plant; 0=no damage to plant), read-out: Velvetleaf damage rating; for pest or weed control at 62.5 g/ha: 62.5 g ai/ha, read-out: Velvetleaf damage rating (100=total damage to plant; 0=no damage to plant); for pest or weed control at 62.5 g/ha / pest or weed control at 250 g/ha: evaluated after 13 days; for pest or weed control at 250 g/ha: 250 g ai/ha, read-out: damage to plant, Velvetleaf (100=total damage to plant; 0=no damage to plant)
Summary of the method: as §2

Row | Structure (SMILES) | pest or weed control at 15.625 g/ha [1] [%] | pest or weed control at 62.5 g/ha [1] [%] | pest or weed control at 250 g/ha [1] [%] | plant injury at 15.625 g/ha (corn (Zea mays) [2]) [%] | plant injury at 62.5 g/ha (corn (Zea mays) [2]) [%] | plant injury at 250 g/ha (corn (Zea mays) [2]) [%] | pest or weed control at 15.625 g/ha [3] [%] | pest or weed control at 62.5 g/ha [3] [%] | pest or weed control at 250 g/ha [3] [%] | pest or weed control at 15.625 g/ha [4] [%] | pest or weed control at 62.5 g/ha [4] [%] | pest or weed control at 250 g/ha [4] [%] | pest or weed control at 15.625 g/ha [5] [%] | pest or weed control at 62.5 g/ha [5] [%] | pest or weed control at 250 g/ha [5] [%] | pest or weed control at 15.625 g/ha [6] [%] | pest or weed control at 62.5 g/ha [6] [%] | pest or weed control at 250 g/ha [6] [%] | pest or weed control at 15.625 g/ha [7] [%] | pest or weed control at 62.5 g/ha [7] [%] | also measured
1 | CN1C[C@@H](c2ccc(C(F)(F)F)cc2)[C@H](C(=O)Nc2ccc(F)cc2C(F)(F)F)C1=O (racemic) [Compound 1616] | 0 | 0 | 60 | 0 | 0 | 0 | 0 | 80 | 90 | 0 | 0 | 20 | 0 | 20 | 60 | 0 | 0 | 50 | 10 | 10 | pest or weed control at 250 g/ha [7]: 60%; plant injury at 15.625 g/ha (corn (Zea mays) [8]): 0%; plant injury at 62.5 g/ha (corn (Zea mays) [8]): 0%; plant injury at 250 g/ha (corn (Zea mays) [8]): 0%; pest or weed control at 15.625 g/ha [9]: 40%; pest or weed control at 62.5 g/ha [9]: 20%; pest or weed control at 250 g/ha [9]: 80%; pest or weed control at 15.625 g/ha [10]: 0%; pest or weed control at 62.5 g/ha [10]: 10%; pest or weed control at 250 g/ha [10]: 20%; pest or weed control at 15.625 g/ha [11]: 20%; pest or weed control at 62.5 g/ha [11]: 50%; pest or weed control at 250 g/ha [11]: 60%; pest or weed control at 15.625 g/ha [12]: 10%; pest or weed control at 62.5 g/ha [12]: 0%; pest or weed control at 250 g/ha [12]: 30%
2 | Cc1cccc(NC(=O)[C@@H]2C(=O)N(C)C[C@H]2c2ccc(C(F)(F)F)cc2)c1Br (racemic) [Compound 1617] | 10 | 30 | 80 | 0 | 0 | 0 | 20 | 80 | 90 | 0 | 0 | 0 | 0 | 10 | 20 | 0 | 0 | 10 | 0 | 0 | pest or weed control at 250 g/ha [7]: 60%; plant injury at 15.625 g/ha (corn (Zea mays) [8]): 0%; plant injury at 62.5 g/ha (corn (Zea mays) [8]): 0%; plant injury at 250 g/ha (corn (Zea mays) [8]): 0%; pest or weed control at 15.625 g/ha [9]: 20%; pest or weed control at 62.5 g/ha [9]: 40%; pest or weed control at 250 g/ha [9]: 70%; pest or weed control at 15.625 g/ha [10]: 0%; pest or weed control at 62.5 g/ha [10]: 0%; pest or weed control at 250 g/ha [10]: 0%; pest or weed control at 15.625 g/ha [11]: 0%; pest or weed control at 62.5 g/ha [11]: 0%; pest or weed control at 250 g/ha [11]: 0%; pest or weed control at 15.625 g/ha [12]: 0%; pest or weed control at 62.5 g/ha [12]: 0%; pest or weed control at 250 g/ha [12]: 0%
3 | CN1C[C@@H](c2ccc(C(F)(F)F)cc2)[C@H](C(=O)Nc2cc(F)c(F)c(F)c2F)C1=O (racemic) [Compound 1625] | 0 | 0 | 40 | 0 | 0 | 0 | 0 | 10 | 80 | 0 | 10 | 10 | 0 | 20 | 10 | 0 | 0 | 10 | 0 | 30 | pest or weed control at 250 g/ha [7]: 40%; plant injury at 15.625 g/ha (corn (Zea mays) [8]): 0%; plant injury at 62.5 g/ha (corn (Zea mays) [8]): 0%; plant injury at 250 g/ha (corn (Zea mays) [8]): 10%; pest or weed control at 15.625 g/ha [9]: 0%; pest or weed control at 62.5 g/ha [9]: 50%; pest or weed control at 250 g/ha [9]: 80%; pest or weed control at 15.625 g/ha [10]: 0%; pest or weed control at 62.5 g/ha [10]: 0%; pest or weed control at 250 g/ha [10]: 20%; pest or weed control at 15.625 g/ha [11]: 0%; pest or weed control at 62.5 g/ha [11]: 30%; pest or weed control at 250 g/ha [11]: 50%; pest or weed control at 15.625 g/ha [12]: 0%; pest or weed control at 62.5 g/ha [12]: 10%; pest or weed control at 250 g/ha [12]: 40%
